Data: PMC11903766, “A structure-based framework for selective inhibitor design and optimization” (Communications Biology, 2025)
pIC50: −log10 of the molar value. Read-outs that look alike come from different tables or passages of the source.

What was measured:
PARP2 [1] = target: T1, PARP2 (Homo sapiens, UniProt Q9UGN5); assay: biochemical; parameters: PARP2 ELISA on histone-coated plates with biotin-NAD+, streptavidin-HRP chemiluminescence
Experimental: (§1) S54 PARP2 inhibitory activity assay. The histone coated 384-well plates were prepared by adding 25 µL histone solution to each well and incubating overnight at 4°C. Prepared PBST buffer, blocking buffer, and assay buffer. Washed the histone coated 384-well plate 3 times using PBST buffer solution. It was blocked with 50 µL blocking buffer at room temperature for 1 h. The plate was washed 3 times using PBST buffer. 2000x compounds were prepared in the source plate, and 50nl compound were transferred from the source plate to the 96-well intermediate plate with 19.95ul assay buffer, shaken, and centrifuged at 1000rpm for 1 min. 5 µL DMSO/compound was then transferred to each well. The PARP2 mixture was incubated for 10 min at 25°C, followed by the addition of 10 µL PARP2 (except min control), incubated with the compound for 10 min at RT, and 10 µL assay buffer was added to the minimal control of assay plate. Added 10 µL of 2.5x Biotin-NAD+ to each well and incubated for 90 min at 25°C. The plate was washed 3 times with PBST buffer and then assayed. Added 25 µL of Stre-HRP. Incubated for 1 h at RT and washed the plate 3 times with PBST buffer. Read chemiluminescence on Envision immediately after adding 25 µL of Femto-ECL Substrate A and Femto-ECL Substrate B (1:1) mix. The IC50 values were calculated by analyzing the concentration-response curves.

PARP1 [2] = target: T2, PARP1 (Homo sapiens, UniProt P09874); assay: biochemical; parameters: PARP1 ELISA on histone-coated plates with NAD+, anti-PAR antibody, HRP chemiluminescence
Experimental: (§2) S53 Biological Assay Methods PARP1 inhibitory activity assay. The histone coated 384-well plates were prepared by adding 25 µL histone solution to each well and incubating overnight at 4°C. Prepared PBST buffer, blocking buffer, and assay buffer. Washed the histone coated 384-well plate 3 times using PBST buffer solution. It was blocked with 50 µL blocking buffer at room temperature for 1 h. The plate was washed 3 times using PBST buffer. 2000x compounds were prepared in the source plate, and 50nl compound were transferred from the source plate to the 96-well intermediate plate with 19.95ul assay buffer, shaken, and centrifuged at 1000rpm for 1 min. 5 µL DMSO/compound was then transferred to each well. The PARP1 and DNA mixture was incubated for 10 min at 25°C, followed by the addition of 10 µL PARP1 and DNA (except min control), incubated with the compound for 10 min at RT, and 10 μL DNA was added to the minimal control of assay plate. Added 10 µL of 2.5x NAD+ to each well and incubated for 60 min at 25°C. The plate was washed 3 times with PBST buffer and then assayed. Added 20 µL of anti-Poly/Mono-ADP Ribose Rabbit mAb. […] Read chemiluminescence on Envision immediately after adding 25 µL of Femto-ECL Substrate A and Femto-ECL Substrate B (1:1) mix. The IC50 values were calculated by analyzing the concentration-response curves. […]

PARP1 [3] = target: T2, PARP1; assay: ELISA enzyme inhibition assay; format: biochemical; conditions: read-out: PARP1 Enzyme / IC50 (nM)^b
PARP2 [4] = target: T1, PARP2; assay: biochemical; parameters: PARP2 ELISA on histone-coated plates, biotin-NAD+, streptavidin-HRP, chemiluminescence
Experimental: as §1

PARP2 [5] = target: T1, PARP2; assay: ELISA enzyme inhibition assay; format: biochemical; conditions: read-out: PARP2 Enzyme / IC50 (nM)^b
PARP1 [6] = target: T2, PARP1; assay: biochemical; parameters: PARP1 ELISA on histone-coated plates, NAD+, anti-PAR antibody with HRP, chemiluminescence
Experimental: S53 Biological Assay Methods PARP1 inhibitory activity assay. The histone coated 384-well plates were prepared by adding 25 µL histone solution to each well and incubating overnight at 4°C. Prepared PBST buffer, blocking buffer, and assay buffer. Washed the histone coated 384-well plate 3 times using PBST buffer solution. It was blocked with 50 µL blocking buffer at room temperature for 1 h. The plate was washed 3 times using PBST buffer. 2000x compounds were prepared in the source plate, and 50nl compound were transferred from the source plate to the 96-well intermediate plate with 19.95ul assay buffer, shaken, and centrifuged at 1000rpm for 1 min. 5 µL DMSO/compound was then transferred to each well. The PARP1 and DNA mixture was incubated for 10 min at 25°C, followed by the addition of 10 µL PARP1 and DNA (except min control), incubated with the compound for 10 min at RT, and 10 μL DNA was added to the minimal control of assay plate. Added 10 µL of 2.5x NAD+ to each well and incubated for 60 min at 25°C. The plate was washed 3 times with PBST buffer and then assayed. Added 20 µL of anti-Poly/Mono-ADP Ribose Rabbit mAb. Incubated for 1.5 h at RT and washed the plate 3 times with PBST buffer. Then added, 20 µL of diluted (1:2000 in Blocking buffer) anti-rabbit IgG, HRP-linked Antibody. Incubated for 1 h at RT and washed the plate 3 times using PBST buffer. Read chemiluminescence on Envision immediately after adding 25 µL of Femto-ECL Substrate A and Femto-ECL Substrate B (1:1) mix. The IC50 values were calculated by analyzing the concentration-response curves. Fit the data to obtain inhibition values using equation (1) Equation (1): inh %=( Max-Signal)/ (Max-Min)*100 Fit the data to obtain IC50 values using equation (2) Equation (2): Y=Bottom + (Top-Bottom)/(1+(IC50/X)[…]) Y is %inhibition and X is compound concentration.

PARP2 [7] = target: T1, PARP2; parameters: PARP2 ELISA on histone-coated plates, biotin-NAD+, streptavidin-HRP, chemiluminescence; conditions: inhibitor
Experimental: as §1

PARP1 [8] = target: T2, PARP1; parameters: PARP1 ELISA on histone-coated plates, NAD+, anti-PAR antibody with HRP, chemiluminescence; conditions: inhibitor
Experimental: as §2

T2 sequence (P09874 2-1014): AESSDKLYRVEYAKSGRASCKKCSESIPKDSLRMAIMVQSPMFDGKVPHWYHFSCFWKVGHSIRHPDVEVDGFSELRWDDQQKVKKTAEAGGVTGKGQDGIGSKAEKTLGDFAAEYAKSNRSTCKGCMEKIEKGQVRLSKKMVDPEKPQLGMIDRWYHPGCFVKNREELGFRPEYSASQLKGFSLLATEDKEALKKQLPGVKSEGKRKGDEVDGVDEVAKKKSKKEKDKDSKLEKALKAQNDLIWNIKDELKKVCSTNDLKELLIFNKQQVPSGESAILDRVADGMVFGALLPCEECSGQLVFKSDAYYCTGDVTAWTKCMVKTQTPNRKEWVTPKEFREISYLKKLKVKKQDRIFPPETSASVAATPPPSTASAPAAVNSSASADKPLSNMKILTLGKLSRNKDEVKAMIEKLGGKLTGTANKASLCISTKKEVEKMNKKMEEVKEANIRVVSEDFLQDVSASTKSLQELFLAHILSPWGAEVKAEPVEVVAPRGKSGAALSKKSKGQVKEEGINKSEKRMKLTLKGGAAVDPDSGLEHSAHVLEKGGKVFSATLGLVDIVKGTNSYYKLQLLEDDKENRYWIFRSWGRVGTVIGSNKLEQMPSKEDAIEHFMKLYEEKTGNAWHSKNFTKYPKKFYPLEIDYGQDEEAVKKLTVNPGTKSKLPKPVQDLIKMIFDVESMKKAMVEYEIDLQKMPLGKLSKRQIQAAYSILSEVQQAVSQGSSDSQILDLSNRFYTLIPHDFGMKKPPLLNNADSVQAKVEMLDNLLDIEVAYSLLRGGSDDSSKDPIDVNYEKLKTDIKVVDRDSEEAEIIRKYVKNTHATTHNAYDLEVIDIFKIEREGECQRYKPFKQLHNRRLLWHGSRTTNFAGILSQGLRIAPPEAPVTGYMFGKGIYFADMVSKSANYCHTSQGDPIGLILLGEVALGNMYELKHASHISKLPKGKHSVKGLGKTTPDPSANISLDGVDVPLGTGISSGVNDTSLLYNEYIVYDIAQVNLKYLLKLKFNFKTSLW
T1 sequence (Q9UGN5 whole entry): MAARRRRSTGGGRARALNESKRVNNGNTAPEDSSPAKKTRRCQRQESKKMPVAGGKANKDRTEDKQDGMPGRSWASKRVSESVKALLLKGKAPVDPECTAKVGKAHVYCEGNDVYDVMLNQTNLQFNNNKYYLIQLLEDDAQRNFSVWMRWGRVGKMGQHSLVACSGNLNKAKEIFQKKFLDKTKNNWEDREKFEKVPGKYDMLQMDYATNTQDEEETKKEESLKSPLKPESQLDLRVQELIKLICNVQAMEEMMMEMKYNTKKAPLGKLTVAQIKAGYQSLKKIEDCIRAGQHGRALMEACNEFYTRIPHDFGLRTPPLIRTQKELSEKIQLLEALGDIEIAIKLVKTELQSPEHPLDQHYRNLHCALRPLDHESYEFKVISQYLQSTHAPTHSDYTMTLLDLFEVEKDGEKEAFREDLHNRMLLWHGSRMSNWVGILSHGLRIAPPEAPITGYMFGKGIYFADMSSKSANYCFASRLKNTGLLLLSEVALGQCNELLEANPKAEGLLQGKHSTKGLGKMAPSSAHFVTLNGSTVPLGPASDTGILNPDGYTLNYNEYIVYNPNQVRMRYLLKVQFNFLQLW

| Structure (SMILES) | pIC50 (PARP2 [1]) | pIC50 (PARP1 [2]) | IC50 (PARP1 [3]) [nM] | inhibition at 0.01 µM (PARP2 [4]) [%] | IC50 (PARP2 [5]) [nM] | inhibition at 0.01 µM (PARP1 [6]) [%] | inhibition at 10 µM (PARP1 [6]) [%] | pIC50 (PARP2 [7]) | pIC50 (PARP1 [8]) |
| --- | --- | --- | --- | --- | --- | --- | --- | --- | --- |
| CNC(=O)c1ccc(N2CCN(Cc3ccnc(-c4c[nH]c(=O)c(C)c4)n3)CC2)cn1 [R1] | 6.59 | 5.47 |  |  |  |  |  |  |  |
| CCn1c(=O)[nH]c2sc(CN3CCN(c4ccc(C(=O)NC)nc4)CC3)c(C)c2c1=O [Y4] |  |  | 86.5 | -1.6 | 741 | 20.7 | 99 |  |  |
| O=C(c1ccc(C(F)(F)F)c(=O)[nH]1)N1CCN(c2ccc3cc[nH]c3c2)CC1 [Z5] |  |  |  | -0.8 |  | 7.3 | 12.7 | < 5.00 | < 5.00 |
| CCNC(=O)Nc1cc(CN2CCN(c3ccc(C(=O)NC)nc3)CC2)c2ccccc2n1 [Y6] |  |  | 6 | 87.6 | 2.4 | 70.5 | 99.1 |  |  |
| CNC(=O)c1ccc(N2CCN(CC#Cc3cccc4cn[nH]c34)CC2)cn1 [Y2] |  |  |  | 2.3 |  | -0.1 | 47.4 | < 5.00 | 5.01 |
| CNC(=O)c1ccc(N2CCN(Cc3ccc4c(c3)[nH]c3ncccc34)CC2)cn1 [Y5] |  |  | 12.7 | 1.4 |  | 46 | 98.8 | < 5.00 |  |
